# According to PubChem BioAssay AID588822 (The Scripps Research Institute Molecular Screening Center, 2011):
# The source made the active and inactive calls.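 How the source made its calls: active means half-maximal inhibitory concentration of 10 µM or lower; inactive means the rest.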
# Target: Nuclear receptor subfamily 0 group B member 1 (Homo sapiens) (UniProt P51843)
# Assay: DAX1 (NR0B1) repression inhibitors, late-stage follow-up, cell-based, luminescence, HEK293, Gal4-DAX1 reporter, dose response (AID 588822)
# Conditions: HEK293 Gal4-DAX1 luciferase reporter
# Nuclear receptor subfamily 0 group B member 1 (Homo sapiens), sequence (P51843 207-470 limits assumed): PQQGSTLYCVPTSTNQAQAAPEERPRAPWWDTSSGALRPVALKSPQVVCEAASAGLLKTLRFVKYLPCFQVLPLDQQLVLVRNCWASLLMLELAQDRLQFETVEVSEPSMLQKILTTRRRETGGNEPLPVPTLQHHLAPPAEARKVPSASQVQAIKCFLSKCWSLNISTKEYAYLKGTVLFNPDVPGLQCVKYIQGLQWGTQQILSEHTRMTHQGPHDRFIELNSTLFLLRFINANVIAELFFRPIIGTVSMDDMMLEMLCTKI
row,Structure (SMILES),IC50
1,O=C(Nc1ccc2c(c1)OCO2)c1ccc(C2SCC(=O)N2Cc2ccco2)cc1 (centres undefined),> 69.5 µM (inactive)
2,COc1ccc(OC)c(C(C)NC(=O)c2ccccc2Cl)c1 (centres undefined),> 69.5 µM (inactive)
3,COc1ccc(OC)c(C(C)NC(=O)c2cccc(F)c2)c1 (centres undefined),> 69.5 µM (inactive)
4,COc1ccc(OC)c(C(C)NC(=O)c2cccc(C)c2)c1 (centres undefined),> 69.5 µM (inactive)
5,CN(C)c1cccc(C(=O)Nc2ccc3c(c2)OCCO3)c1,> 69.5 µM (inactive)
6,COc1ccc(OC)c(C(C)NC(=O)c2ccccc2F)c1 (centres undefined),> 69.5 µM (inactive)
7,CSc1ccccc1C(=O)Nc1ccc2c(c1)OCO2,> 69.5 µM (inactive)
8,COc1ccc(OC)c(C(C)NC(=O)c2ccccc2)c1 (centres undefined),> 69.5 µM (inactive)
9,COc1ccc(OC)c(C(C)NC(=O)c2ccc(F)cc2)c1 (centres undefined),> 69.5 µM (inactive)
10,O=C(Nc1ccc2c(c1)OCO2)c1cccs1,> 69.5 µM (inactive)
11,COc1cccc(C(=O)Nc2ccc3c(c2)OCCO3)c1,> 69.5 µM (inactive)
12,O=C(Nc1ccc2c(c1)OCO2)c1ccc2ccccc2c1,> 69.5 µM (inactive)
13,CSc1ccccc1C(=O)Nc1ccc2c(c1)OCCO2,> 69.5 µM (inactive)
14,O=C(Cc1cccs1)Nc1ccc2c(c1)OCO2,> 69.5 µM (inactive)
15,COc1ccc(OC)c(C(C)NC(=O)c2ccc(C)cc2)c1 (centres undefined),> 69.5 µM (inactive)
16,COc1ccc(OC)c(C(C)NC(=O)c2ccc(C(C)(C)C)cc2)c1 (centres undefined),> 69.5 µM (inactive)
17,COc1ccc(OC)c(C(C)NC(=O)c2cccc3ccccc23)c1 (centres undefined),> 69.5 µM (inactive)
18,COc1cccc(C(=O)NC(C)c2cc(OC)ccc2OC)c1 (centres undefined),> 69.5 µM (inactive)
19,Cn1c(=O)n(C)c2cc(C(=O)Nc3ccc4c(c3)OCCO4)ccc21,> 69.5 µM (inactive)
20,O=C(Nc1ccc2c(c1)OCCO2)c1ccc2ccccc2c1,> 69.5 µM (inactive)
21,COc1ccc(OC)c(C(C)NC(=O)c2ccc(Cl)cc2)c1 (centres undefined),> 69.5 µM (inactive)
22,Cc1occc1C(=O)Nc1ccc2c(c1)OCO2,> 69.5 µM (inactive)
23,COc1ccc(OC)c(C(C)NC(=O)c2ccccc2C)c1 (centres undefined),> 69.5 µM (inactive)
24,COc1cccc(C(=O)Nc2ccc3c(c2)OCO3)c1,> 69.5 µM (inactive)
25,Cn1c(=O)n(C)c2cc(C(=O)Nc3ccc4c(c3)OCO4)ccc21,> 69.5 µM (inactive)
26,COc1ccc(OC)c(C(C)NC(=O)c2c(F)cccc2Cl)c1 (centres undefined),> 69.5 µM (inactive)
27,O=C(Nc1ccc2c(c1)OCO2)c1ccc(C2SCC(=O)N2Cc2ccccc2)cc1 (centres undefined),> 69.5 µM (inactive)
28,COc1ccc(OC)c(C(C)NC(=O)c2ccc3c(c2)OCCO3)c1 (centres undefined),> 69.5 µM (inactive)
29,Cc1cc(C(=O)Nc2ccc3c(c2)OCO3)cs1,> 69.5 µM (inactive)
